Laboratory results as given in patent publication US6300368A, “Anilide derivatives and antiarrhythmic agents containing the same” (priority 1998, dated 2001).
Like-named read-outs stand apart in the source and are kept apart here.

Columns and labels:
[1] = tested on: Purkinje's fiber; assay: Effects on ventricle: action potential of Purkinje's fiber from dog right ventricular free wall (Pharmacological Trial 2); assay type: cell-based; conditions: Canis lupus familiaris
Excerpt: Pharmacological Trial 2: Evaluation of Effects on Ventricle
Method: Purkinje's fiber specimen excised from the right ventricular free wall of dog, perfused with normal Tyrode solution and driven by electrical stimulation (fundamental frequency=1 Hz) was used. Standard glass microelectrode was used to record action potential.

[2] = tested on: ventricular function; conditions: cited from earlier work

**Q.** For `CC(=O)Nc1ccc(OCCNC(C)C)cc1.Cl` [Reference 1, 4'-[2-(Isopropylamino)ethoxy]acetanilide Hydrochloride], which inhibition at 30 µM ([1]; 30 μM, read-out: suppression of Vmax (maximum rate of rise for action potential)) is on record?
**A.** The inhibition at 30 µM was 15%.

**Q.** What about the “action on ventricular function” value [2] of the same compound?
**A.** Its value is “act suppressively on ventricular function”.

**Q.** For `CN(CCOc1ccc(NS(C)(=O)=O)cc1)CCc1ccc(NS(C)(=O)=O)cc1` [Dofetilide], which activation at 10 µM ([1]; read-out: extension of APD50 (duration to repolarize 50%)) is on record?
**A.** The activation at 10 µM was 57%.

**Q.** What about the activation at 10 µM ([1]; read-out: extension of APD75 (duration to repolarize 75%)) of the same compound?
**A.** Its activation at 10 µM is 45%.

**Q.** And the activation at 10 µM ([1]; read-out: extension of APD90 (duration to repolarize 90%))?
**A.** Its activation at 10 µM is 42%.

**Q.** Which inhibition at 3 µM ([1]; 3 μM, read-out: suppression of Vmax (maximum rate of rise for action potential)) does the source give for `O=C(NCC1CCCCN1)c1cc(OCC(F)(F)F)ccc1OCC(F)(F)F` (stereo not shown) [Flecanide] here?
**A.** The inhibition at 3 µM was 30%.

**Q.** With `CC(=O)Nc1ccc(OCCNC2CCCCC2)cc1` [4'-[2-(cyclohexylamino)ethoxy] acetanilide] as the compound, how does the “action on ventricular function” value [2] read?
**A.** The value was “act suppressively on ventricular function”.
